For 17 molecules, IC50 results are on record in patent US11976083B2, “Inhibitors of peptidylarginine deiminases” (Gilead Sciences, Inc., priority 2020, dated 2024).

In this experiment the target is T1, human PAD4 (Homo sapiens, UniProt Q9UM07).
T1 construct: human PAD4 (NM_012387), A2-P663, was PCR amplified; His-SUMO (N, cleaved yes); made in house; host or cells: E. coli BL21(DE3)
The experiment in a line: In vitro PAD4 BAEE biochemical assay. As to conditions: BAEE substrate 3 mM, 5 nM PAD4, 2 mM calcium chloride; geometric mean of multiple experiments. A digest of the protocol: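 Assay was run at 25 °C using 3 mM BAEE and 5 nM human PAD4 after a 30 min compound preincubation; ammonia produced over 2 h was quantified by OPA-derived fluorescence. Full inhibition was defined by 50 µM BB-Cl-Amidine, and IC50 came from variable-slope nonlinear regression.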

For orientation: IC50 means the concentration that inhibits the measured activity by half.

T1 sequence (Q9UM07 2-663): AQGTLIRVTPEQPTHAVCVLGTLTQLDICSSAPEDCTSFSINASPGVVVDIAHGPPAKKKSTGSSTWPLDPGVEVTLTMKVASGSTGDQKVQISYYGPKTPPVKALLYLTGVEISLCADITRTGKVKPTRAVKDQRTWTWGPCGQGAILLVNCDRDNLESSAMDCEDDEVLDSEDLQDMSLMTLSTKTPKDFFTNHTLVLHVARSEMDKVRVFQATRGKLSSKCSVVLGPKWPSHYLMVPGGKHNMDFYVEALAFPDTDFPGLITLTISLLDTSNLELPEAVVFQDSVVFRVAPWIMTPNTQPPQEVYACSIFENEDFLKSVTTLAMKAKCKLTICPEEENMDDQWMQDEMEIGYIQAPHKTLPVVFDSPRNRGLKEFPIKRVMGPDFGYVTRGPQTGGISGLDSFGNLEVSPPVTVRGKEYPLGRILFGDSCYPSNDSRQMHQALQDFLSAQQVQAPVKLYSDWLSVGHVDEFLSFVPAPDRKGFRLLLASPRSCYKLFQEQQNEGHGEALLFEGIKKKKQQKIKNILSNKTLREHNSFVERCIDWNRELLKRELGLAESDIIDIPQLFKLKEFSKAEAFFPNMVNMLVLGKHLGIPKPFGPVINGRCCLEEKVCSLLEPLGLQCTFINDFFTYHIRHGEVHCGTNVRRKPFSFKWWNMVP

On to `C[C@H]1NC(=O)[C@@H]2C[C@@]2(F)CCCC(F)(F)Cn2c(-c3nc4cc(C(=O)N5C[C@H](N)[C@@H]6CC[C@H]5C6)cc(F)c4n3C3CC3)cc3ccc1nc32` [Example 449, (2~{R},5~{S},7~{S})-14-[5-[(1~{S},4~{R},5~{R})-4-amino-2-azabicyclo[3.2.1]octane-2-carbonyl]-1-cyclopropyl-7-fluoro-benzimidazol-2-yl]-7,11,11-trifluoro-2-methyl-3,13,19-triazatetracyclo[11.5.2.0^{5,7}.0^{16,20}] icosa-1(19),14,16(20),17-tetraen-4-one], for which the IC50 stood at 22 nM.
For the molecule `COc1cc(C(=O)N2[C@H]3CC[C@@H]2[C@H](N)C3)cc2nc(-c3cc4ccc5nc4n3C[C@H]3C[C@@H]3COCC(=O)N[C@@H]5C)c(C)n12` [Example 325, (3~{S},5~{S},11~{R})-17-[7-[(1~{R},2~{R},4~{S})-2-amino-7-azabicyclo[2.2.1]heptane-7-carbonyl]-5-methoxy-3-methyl-imidazo[1,2-a]pyridin-2-yl]-11-methyl-7-oxa-1,10,19-triazatetracyclo[10.5.2.0^{3,5}.0^{15,18}] nonadeca-12(19),13,15(18),16-tetraen-9-one], the IC50 is 16 nM.
The same measure for `C[C@@H]1C[C@H]1n1c(-c2cc3ccc4nc3n2CCCCC[C@@H]2C[C@H]2C(=O)N[C@@H]4C)nc2cc(C(=O)N[C@H]3CNCC[C@@H]3F)c(F)cc21` [Example 416, 6-fluoro-~{N}-[(3~{S},4~{S})-4-fluoro-3-piperidyl]-1-[(1~{R},2~{R})-2-methylcyclopropyl]-2-[(2~{R},5~{R},7~{R})-2-methyl-4-oxo-3,13,19-triazatetracyclo[11.5.2.0^{5,7}.0^{16,20}]icosa-1(19),14,16(20),17-tetraen-14-yl]benzimidazole-5-carboxamide]: 34 nM; for `COc1cc(C(=O)N2[C@H]3CC[C@@H]2[C@H](N)C3)cc2nc(-c3cc4ccc5nc4n3CCCCCCC(=O)N[C@@H]5C)n(C3CC3)c12` [Example 254, (10~{R})-16-[5-[(1~{R},2~{R},4~{S})-2-amino-7-azabicyclo[2.2.1]heptane-7-carbonyl]-1-cyclopropyl-7-methoxy-benzimidazol-2-yl]-10-methyl-1,9,18-triazatricyclo[9.5.2.0^{14,17}]octadeca-11(18),12,14(17),15-tetraen-8-one]: 32 nM; for `COc1cc(C(=O)N2C[C@H](N)[C@@H]3CC[C@H]2C3)cc2nc(-c3cc4ccc5nc4n3CCCCC[C@@H]3C[C@H]3C(=O)N[C@@H]5C)n(C)c12` [Example 444, (2~{R},5~{R},7~{R})-14-[5-[(1~{S},4~{R},5~{R})-4-amino-2-azabicyclo[3.2.1]octane-2-carbonyl]-7-methoxy-1-methyl-benzimidazol-2-yl]-2-methyl-3,13,19-triazatetracyclo[11.5.2.0^{5,7}.0^{16,20}] icosa-1(19),14,16(20),17-tetraen-4-one]: 20 nM.
`COc1cc(C(=O)N2C[C@H](N)[C@@H]3CC[C@H]2[C@H]3F)cc2nc(-c3cc4ccc5nc4n3CC(F)(F)CCC[C@@H]3C[C@H]3C(=O)N[C@@H]5C)n(C)c12` [Example 668, (2~{R},5~{R},7~{R})-14-[5-[(1~{S},4~{R},5~ {S},8~{S})-4-amino-8-fluoro-2-azabicyclo [3.2.1]octane-2-carbonyl]-7-methoxy-1-methyl-benzimidazol-2-yl]-11,11-difluoro-2-methyl-3,13,19-triazatetracyclo [11.5.2.0^{5,7}.0^{16,20}] icosa-1(19),14,16(20), 17-tetraen-4-one]: the IC50 was determined as 22 nM.
The same measure for `COc1cc(C(=O)N2CC[C@@H](OC)[C@@H](N)C2)cc2nc(-c3cc4ccc5nc4n3C[C@H]3C[C@H]3CCC[C@](C)(C(F)(F)F)C(=O)N[C@@H]5C)n(C)c12` [Example 370, (3~{S),5~{R},9~{S},12~{R})-18-[5-[(3~{S},4~{R})-3-amino-4-methoxy-piperidine-1-carbonyl]-7-methoxy-1-methyl-benzimidazol-2-yl]-9,12-dimethyl-9-(trifluoromethyl)-1,11,20-triazatetracyclo[11.5.2.0^{3,5}.0^{16,19}] icosa-13(20),14,16(19),17-tetraen-10-one]: 163 nM; for `COc1cc(C(=O)N2C[C@@H](O)C[C@@H](N)[C@H]2C)cc2nc(-c3cc4ccc5nc4n3CCCCCCC(C)(C)C(=O)N[C@@H]5C)n(C)c12` [Example 800, (11~{R})-17-[5-[(2~{R},3~{R}, 5~{S})-3-amino-5-hydroxy-2-methyl-piperidine-1-carbonyl]-7-methoxy-1-methyl-benzimidazol-2-yl]-8,8,11-trimethyl-1,10,19-triazatricyclo [10.5.2.0^{15,18}]nonadeca-12,14,16,18-tetraen-9-one]: 74 nM.
The value for `COc1cc(C(=O)N2C[C@H](N)[C@@H]3CC[C@H]2C3)cc2nc(-c3cc4ccc5nc4n3CCCCCC[C@](F)(c3ccccn3)C(=O)N[C@@H]5C)n(C)c12` [Example 883, (8~{S},11~{R})-17-[5-[(1~{S},4~{R},5~{R})-4-amino-2-azabicyclo[3.2.1]octane-2-carbonyl]-7-methoxy-1-methyl-benzimidazol-2-yl]-8-fluoro-11-methyl-8-(2-pyridyl)-1,10,19-triazatricyclo[10.5.2.0^ {15,18}]nonadeca-12(19), 13,15(18),16-tetraen-9-one] was 18 nM; that for `COc1cc(C(=O)N2[C@H]3CC[C@@H]2[C@H](N)C3)cc2nc(-c3cc4ccc5cc4n3CCCCCCNC(=O)c3ncccc3-5)n(C)c12` [Example 98, 17-[5-[(1~{R},2~{R},4~{S})-2-amino-7-azabicyclo[2.2.1]heptane-7-carbonyl]-7-methoxy-1-methyl-benzimidazol-2-yl]-6,9,16-triazatetracyclo[14.5.2.0^{2,7}.0^{19,23}] tricosa-1(22),2,4,6,17,19(23),20-heptaen-8-one] was 122 nM.
The value for `COc1cc(C(=O)N2[C@H]3CC[C@@H]2[C@H](N)C3)cc2nc(-c3cc4ccc5nc4n3CCCCCCCCC(=O)N[C@@H]5C)c(C)n12` [Example 318, (12~{R})-18-[7-[(1~{R},2~{R},4~{S})-2-amino-7-azabicyclo[2.2.1]heptane-7-carbonyl]-5-methoxy-3-methyl-imidazo[1,2-a]pyridin-2-yl]-12-methyl-1,11,20-triazatricyclo[11.5.2.0^{16,19}]icosa-13(20),14,16(19),17-tetraen-10-one] was 18 nM; that for `COc1cc(C(=O)N2CCC[C@@H](N)C2)cc2nc(-c3cc4ccc5nc4n3CCCC#Cc3cnn(C)c3C(=O)N[C@@H]5C)n(C)c12` [Example 171, (2~{R})-16-[5-[(3~{R})-3-aminopiperidine-1-carbonyl]-7-methoxy-1-methyl-benzimidazol-2-yl]-2,6-dimethyl-3,6,7,15,21-pentazatetracyclo[13.5.2.0^{5,9}.0^{18,22}] docosa-1(21),5(9),7,16,18(22),19-hexaen-10-yn-4-one] was 804 nM.
`COc1cc(C(=O)N[C@H]2CNCCC2(F)F)cc2nc(-c3cc4ccc5cc4n3CCCCCCC(C)(C)C(=O)N[C@@H]5C)n(C)c12` [Example 191, ~{N}-[(3~{S})-4,4-difluoro-3-piperidyl]-7-methoxy-1-methyl-2-[(11~{R})-8,8,11-trimethyl-9-oxo-1,10-diazatricyclo[10.5.2.0^{15,18}]nonadeca-12(19),13,15(18),16-tetraen-17-yl]benzimidazole-5-carboxamide]: the IC50 came to 140 nM.
The value for `COc1cc(C(=O)N2CCC[C@@H](N)C2)cc2nc(-c3cc4ccc5nc4n3CCC/C=C/C[C@](C)(C(F)(F)F)C(=O)N[C@@H]5C)n(C)c12` (single isomer, unassigned) [Example 3, (5˜{E},8˜{S},11˜{R})-17-[5-[(3˜{R})-3-aminopiperidine-1-carbonyl]-7-methoxy-1-methyl-benzimidazol-2-yl]-8,11-dimethyl-8-(trifluoromethyl)-1,10,19-triazatricyclo[10.5.2.0^{15,18}]nonadeca-5,12(19),13,15(18),16-pentaen-9-one] was 110 nM; that for `COc1cc(C(=O)N2CCC[C@@H](N)[C@H]2CO)cc2nc(-c3cc4ccc5nc4n3CCCCC[C@@H]3C[C@H]3C(=O)N[C@@H]5C)n(C)c12` [Example 408, (2~{R},5~{R},7~{R})-14-[5-[(2~{S},3~{R})-3-amino-2-(hydroxymethyl)piperidine-1-carbonyl]-7-methoxy-1-methyl-benzimidazol-2-yl]-2-methyl-3,13,19-triazatetracyclo[11.5.2.0^{5,7}.0^{16,20}] icosa-1(19),14,16(20),17-tetraen-4-one] was 255 nM.
For `C[C@H]1NC(=O)[C@]2(C)C[C@H]2CCCC(F)(F)Cn2c(-c3nc4cc(C(=O)N5[C@H]6CC[C@@H]5[C@H](N)C6)c(F)cc4n3C)cc3ccc1nc32` [Example 554, (2~{R},5~{R},7~ {R})-14-[5-[(1~{R},2~ {R},4~{S})-2-amino-7-azabicyclo[2.2.1]heptane-7-carbonyl]-6-fluoro-1-methyl-benzimidazol-2-yl]-11,11-difluoro-2,5-dimethyl-3,13,19-triazatetracyclo[11.5.2.0^ {5,7}.0^{16,20}]icosa-1(19), 14,16(20),17-tetraen-4-one], the IC50 is 34 nM.
Take `COc1cc(C(=O)N2CCC[C@@H](N)C2)cc2nc(-c3cc4ccc5nc4n3C[C@H]3C[C@@H]3CCCC(C)C(=O)N[C@@H]5C)n(C)c12` (some centres unmarked) [Example 166, (3~{S},5~{S},12~{R})-18-[5-[(3~{R})-3-aminopiperidine-1-carbonyl]-7-methoxy-1-methyl-benzimidazol-2-yl]-9,12-dimethyl-1,11,20-triazatetracyclo[11.5.2.0^{3,5}.0^{16,19}] icosa-13(20),14,16(19),17-tetraen-10-one]: the IC50 came to 49 nM.
